How the values were obtained:
[1] = Inhibition of rabbit stomach K+ stimulated H(+)/K(+) ATPase activity incubated for 30 mins in presence of ATP and KCl by malachite green reagent based assay; assay type: tissue-based, Oryctolagus cuniculus
[2] = Inhibition of gastric acid secretion in histamine induced Sprague-Dawley rat at 1 mg/kg, iv pretreated with compound for 15 mins followed by histamine dihydrochloride injection and measured after 3 hrs; assay type: functional; conditions: 3.25 h, time 195 min
[3] = AUC (0 to infinity) in Sprague-Dawley rat at 2 mg/kg, iv by LC-MS/MS analysis; assay type: ADME, organism-based; set-up: time infinity, dose 2 mg/kg, route iv; conditions: in vivo
[4] = AUC (0 to infinity) in Sprague-Dawley rat at 8 mg/kg, po by LC-MS/MS analysis; assay type: ADME, organism-based; set-up: time infinity, dose 8 mg/kg, route po; conditions: in vivo
[5] = Terminal half life in Sprague-Dawley rat at 2 mg/kg, iv by LC-MS/MS analysis; assay type: ADME, organism-based; conditions: in vivo, read-out: beta t1/2 (converted)
[6] = Cmax in Sprague-Dawley rat at 8 mg/kg, po by LC-MS/MS analysis; assay type: ADME, organism-based; set-up: dose 8 mg/kg, route po; conditions: in vivo
[7] = Elimination half life in Sprague-Dawley rat at 8 mg/kg, po by LC-MS/MS analysis; assay type: ADME, organism-based; conditions: in vivo, read-out: beta t1/2 (converted)
[8] = Oral bioavailability in Sprague-Dawley rat at 8 mg/kg by LC-MS/MS analysis; assay type: ADME, organism-based; conditions: in vivo
[9] = AUC (0 to infinity) in Sprague-Dawley rat at 2 mg/kg, po; assay type: ADME, organism-based; set-up: time infinity, dose 2 mg/kg, route po; conditions: in vivo
[10] = Half life in Sprague-Dawley rat at 0.75 mg/kg, iv measured up to 24 hrs; assay type: ADME, organism-based; conditions: in vivo
[11] = Oral bioavailability in Sprague-Dawley rat at 2 mg/kg; assay type: ADME, organism-based; conditions: in vivo
[12] = Half life in Sprague-Dawley rat at 2 mg/kg, po; assay type: ADME, organism-based; conditions: in vivo
[13] = Cmax in Sprague-Dawley rat at 2 mg/kg, po; assay type: ADME, organism-based; set-up: dose 2 mg/kg, route po; conditions: in vivo
[14] = AUC (0 to infinity) in Sprague-Dawley rat at 0.75 mg/kg, iv measured up to 24 hrs; assay type: ADME, organism-based; set-up: dose 0.75 mg/kg, time < 24 hrs, route iv; conditions: in vivo

IC50 [1]	Structure (SMILES)	other results
396 nM	CN1Cc2nn(Cc3cccc(-c4cccc(C#N)c4)c3)c(-c3ccccc3F)c2C1	
140 nM	CN1Cc2nn(Cc3cccc([N+](=O)[O-])c3)c(-c3ccccc3F)c2C1	
354 nM	CN1Cc2nn(Cc3cccc(Cl)c3)c(-c3ccccc3F)c2C1	
1840 nM	CN1Cc2nn(Cc3cccc(OCCC(=O)O)c3)c(-c3ccccc3F)c2C1	
328 nM	CN1Cc2nn(Cc3cccc(-c4cccc(F)c4)c3)c(-c3ccccc3F)c2C1	
340 nM	CN1Cc2nn(Cc3cccc(-c4ccc(F)cc4)c3)c(-c3ccccc3F)c2C1	
> 10000 nM	CC(C)Oc1ccc(-c2c3c(nn2Cc2cccc(O)c2)CN(C)C3)cc1	
97.5 nM	Cc1ccccc1-c1c2c(nn1Cc1cccc(O)c1)CN(C)C2	
313 nM	CN1Cc2nn(Cc3cccc(-c4cccc(N(C)C)c4)c3)c(-c3ccccc3F)c2C1	
410 nM	CN1Cc2nn(Cc3cccc(N4CCOCC4)c3)c(-c3ccccc3F)c2C1	
861 nM	CN1Cc2nn(Cc3ccccc3)c(-c3ccccc3F)c2C1	
3200 nM	CN1Cc2nn(Cc3ccoc3)c(-c3ccccc3F)c2C1	
> 10000 nM	CN1Cc2c(-c3ccccc3F)nn(S(=O)(=O)c3ccccc3)c2C1	
440 nM	CN1Cc2nn(Cc3cccc(-c4cccc(C(F)(F)F)c4)c3)c(-c3ccccc3F)c2C1	
376 nM	CN1Cc2nn(Cc3cccc(-c4ccccc4F)c3)c(-c3ccccc3F)c2C1	
> 10000 nM	COC(=O)c1ccccc1-c1c2c(nn1Cc1cccc(O)c1)CN(C)C2	
814 nM	CN1Cc2nn(Cc3ccccc3F)c(-c3ccccc3F)c2C1	
2110 nM	CN1Cc2cc(S(=O)(=O)c3ccccc3)n(-c3ccccc3F)c2C1	
4300 nM	CN1Cc2nn(Cc3cc4ccccc4o3)c(-c3ccccc3F)c2C1	
342 nM	CN1Cc2nn(Cc3cccc(F)c3)c(-c3ccccc3F)c2C1	
6350 nM	CN1Cc2nn(Cc3cccc(O)c3)c(-c3cccc(Cl)c3)c2C1	

IC50 [1]	Structure (SMILES)	other results
674 nM	CN1Cc2nn(Cc3cccnc3)c(-c3ccccc3F)c2C1	
2160 nM	CN1Cc2nn(Cc3ccsc3)c(-c3ccccc3F)c2C1	
1100 nM	CN1Cc2nn(S(=O)(=O)c3cccnc3)c(-c3ccccc3F)c2C1	
129 nM	CN1Cc2nn(Cc3cccc(-c4cccc(S(C)(=O)=O)c4)c3)c(-c3ccccc3F)c2C1	
3580 nM	CN1Cc2nn(Cc3cccc(O)c3)c(-c3ccc(O)cc3)c2C1	
77.3 nM	CN1Cc2nn(Cc3cccc(O)c3)c(-c3ccccc3F)c2C1	inhibition in vivo at 1 mg/kg [2]: 35.6%
104 nM	CN1Cc2nn(Cc3cccc(O)c3)c(-c3ccccc3Cl)c2C1	
747 nM	CN1Cc2nn(Cc3cccc(OCC(N)=O)c3)c(-c3ccccc3F)c2C1	
1030 nM	CN1Cc2nn(S(=O)(=O)c3ccccc3)c(-c3ccccc3F)c2C1	
389 nM	CN1Cc2nn(Cc3cccc(OCCC(N)=O)c3)c(-c3ccccc3F)c2C1	
585 nM	CN1Cc2nn(Cc3ccc(F)cc3)c(-c3ccccc3F)c2C1	
894 nM	CN1Cc2nn(Cc3cccc(N)c3)c(-c3ccccc3F)c2C1	
60.5 nM	CN1Cc2nn(Cc3cccc(-c4cccc(C(N)=O)c4)c3)c(-c3ccccc3F)c2C1	AUC(0-inf) [3]: 520 ng·h/mL; AUC(0-inf) [4]: 341 ng·h/mL; inhibition in vivo at 1 mg/kg [2]: 86.8%; half-life [5]: 0.49 h; Cmax [6]: 150 ng/mL; half-life [7]: 0.8 h; bioavailability [8]: 16.4%
1240 nM	CN1Cc2nn(Cc3cccc(O)c3)c(-c3cccc(O)c3)c2C1	
> 10000 nM	CN1Cc2nn(Cc3cccc(O)c3)c(-c3ccccc3CO)c2C1	
4170 nM	CN1Cc2nn(Cc3cccc(O)c3)c(-c3cccnc3)c2C1	
488 nM	CN1Cc2nn(Cc3cccc(O)c3)c(-c3cccnc3F)c2C1	
1850 nM	CN1Cc2nn(Cc3cccc(O)c3)c(-c3ccccc3)c2C1	
290 nM	COc1cccc(Cn2nc3c(c2-c2ccccc2F)CN(C)C3)c1	
416 nM	Cc1ccc(-c2c3c(nn2Cc2cccc(O)c2)CN(C)C3)c(F)c1	
49.1 nM	CNCc1cc(-c2ccccc2F)n(S(=O)(=O)c2cccnc2)c1 [VONOPRAZAN]	AUC(0-inf) [9]: 27 ng·h/mL; half-life [10]: 1.2 h; bioavailability [11]: 10%; half-life [12]: 1.3 h; inhibition in vivo at 1 mg/kg [2]: 91%; Cmax [13]: 17 ng/mL; AUC(0-inf) [14]: 99 ng·h/mL

From ChEMBL document CHEMBL5143684, “Design, synthesis and biological evaluation of novel 5-methyl-2,4,5,6-tetrahydropyrrolo[3,4-c]pyrazole derivatives as potent potassium-competitive acid blockers” (Bioorg Med Chem, 2022)
